Reference: patent US11266670B2, “Use of scutellarin in a medicament and a modulator for preventing or treating diseases, medicament, and modulator” (University of Macau, priority 2019, dated 2022)
Starred links: 1 amine or outer side, 2 acyl side, 3 side chain; linkers in the order of their positions; H or OH if unused. Positions of bridges follow the written chain, without caps; N, C: chain ends. Non-standard residues stand in square brackets, D forms with d. Residues, ends and D or L forms follow the SMILES beside them. Chains are numbered I, II in the order given. Actinocin(9to1) = Cc1c2oc3c(C)ccc(C(=O)[*:1])c3nc-2c(C(=O)[*:2])c(N)c1=O; NMeV = CN[C@H](C(=O)O)C(C)C; Sar = CNCC(=O)O

How the values were obtained:
[1] = tested on: WEHI-13VAR cells; test: TNF bioassay: TNF-induced death of WEHI-13VAR cells in the presence of AcD (MTT); type: cell-based
Method: WEHI-13VAR is a fibrosarcoma cell line that is extremely sensitive to TNF-induced cell death in the presence of AcD (0.5 μg/ml) and is commonly used in TNF bioassays. In TNF bioassays, the presence of AcD is a standard approach designed to increase the sensitivity of cells to TNF. TNF acts by binding to its two functionally distinct receptors, TNFR1 and TNFR2. To identify which TNF receptor was expressed on WEHI-13VAR cells, we measured the expression of TNFR1 and TNFR2 on WEHI-13VAR by FACS. […] In the case of labeling with PE anti-mouse TNFR2 antibody, the expression of TNFR2 was higher than in the case of labeling with the isotype control by 50%. […] Furthermore, in order to investigate which TNF receptor is responsible for TNF-induced cell death, we stimulated the cells with TNF, and co-cultured the cells with anti-TNFR1 antibody or anti-TNFR2 antibody for 24 hours. Cell viability was measured by MTT. […]
CHIs are injections developed in China and approved by the China Food and Drug Administration. […] We screened eleven CHIs and assessed their effects on WEHI-13VAR cells by TNF bioassay. […]
WEHI-13VAR cells were seeded in 96-well plates at 1.5×10^4 cells/well. […] Absorbance values were read at 570 nm using a 1420 Multilabel counter victor (PerkinElmer, Waltham, Mass., USA). Cell viability was expressed as the ratio of absorbance values between the sample and the blank control group.

[2] = tested on: Tregs; test: TNF-induced up-regulation of Tregs and Foxp3/TNFR2 expression in cultured lymphocytes (FACS); type: cell-based; conditions: in vitro
Method: FIG. 5. […] Lymphocytes were cultured in the presence of IL-2 (10 ng/mL) or IL-2+TNF (10 ng/mL each), with medium alone or with scutellarin (25-50 μM) for 72 hours. (A) Typical FACS analysis of Tregs is shown. The data as shown are representative of at least three separate experiments with similar results. The numbers in the FACS plots show the proportion of cells in the respective quadrants. (B) Summary of the proportion of CD4^+Foxp3^+ cells in CD4^+ cells. (C) Summary of MFI of Foxp3 expression on Tregs. (D) Typical FACS plots of the proportion of TNFR2^+ cells in Tregs. (E) Summary of the proportion of TNFR2^+ cells in CD4^+Foxp3^+Tregs. (F) Summary of MFI of TNFR2 expression on Tregs (by gating on Foxp3^+ cells) (N=3, mean±SEM). ** p<0.01, *** p<0.001, compared to the “TNF+IL-2” group. The data as shown are representative of at least three separate experiments with similar results.
We then explored the effect of scutellarin on the TNF-induced proliferation of Tregs in an in vitro experiment. […]
Lymphocytes were obtained from spleens, axillary lymph nodes, inguinal lymph nodes and mesenteric lymph nodes of mice. […] The proliferation of Tregs was assessed by CFSE dilution assay, and the proportion of Foxp3^+ cells in the CD4^+ subset and the proportion of TNFR2 expressed on Tregs were analyzed by FACS. […] The expression of Foxp3 and TNFR2 was analyzed by FACS. […]

| Compound | death of WEHI-13VAR cells induced by AcD ([1]; AcD 0.5 μg/ml alone) | 50% lethal dose of scutellarin [2] | cytotoxicity against WEHI-13VAR cells ([1]; scutellarin 12.5-200 μM) |
| --- | --- | --- | --- |
| Cc1c2oc3c(C)ccc(C(=O)N[C@@H]4C(=O)N[C@H](C(C)C)C(=O)N5CCC[C@H]5C(=O)N(C)CC(=O)N(C)[C@@H](C(C)C)C(=O)O[C@@H]4C)c3nc-2c(C(=O)N[C@@H]2C(=O)N[C@H](C(C)C)C(=O)N3CCC[C@H]3C(=O)N(C)CC(=O)N(C)[C@@H](C(C)C)C(=O)O[C@@H]2C)c(N)c1=O [AcD, actinomycin D, reference compound] (I: T[dV]P[Sar][NMeV] / II: T[dV]P[Sar][NMeV]; ester I:1-I:C, II:1-II:C; linker I:N-II:N via Actinocin(9to1)) | approximately 30% |  |  |
| O=C(O)[C@H]1O[C@@H](Oc2cc3oc(-c4ccc(O)cc4)cc(=O)c3c(O)c2O)[C@H](O)[C@@H](O)[C@@H]1O [scutellarin] |  | higher than 100 μM | no significant cytotoxicity against WEHI-13VAR cells |
